Measurements from patent US20040053323A1, “Method of screening inducible nitric oxide synthase activation inhibitor” (priority 2000, published 2004).

Columns and labels:
iNOS [1] = biological target: T1, iNOS (Mus musculus, UniProt P29477); details: cited from earlier work
T1 sequence (P29477 1-1144): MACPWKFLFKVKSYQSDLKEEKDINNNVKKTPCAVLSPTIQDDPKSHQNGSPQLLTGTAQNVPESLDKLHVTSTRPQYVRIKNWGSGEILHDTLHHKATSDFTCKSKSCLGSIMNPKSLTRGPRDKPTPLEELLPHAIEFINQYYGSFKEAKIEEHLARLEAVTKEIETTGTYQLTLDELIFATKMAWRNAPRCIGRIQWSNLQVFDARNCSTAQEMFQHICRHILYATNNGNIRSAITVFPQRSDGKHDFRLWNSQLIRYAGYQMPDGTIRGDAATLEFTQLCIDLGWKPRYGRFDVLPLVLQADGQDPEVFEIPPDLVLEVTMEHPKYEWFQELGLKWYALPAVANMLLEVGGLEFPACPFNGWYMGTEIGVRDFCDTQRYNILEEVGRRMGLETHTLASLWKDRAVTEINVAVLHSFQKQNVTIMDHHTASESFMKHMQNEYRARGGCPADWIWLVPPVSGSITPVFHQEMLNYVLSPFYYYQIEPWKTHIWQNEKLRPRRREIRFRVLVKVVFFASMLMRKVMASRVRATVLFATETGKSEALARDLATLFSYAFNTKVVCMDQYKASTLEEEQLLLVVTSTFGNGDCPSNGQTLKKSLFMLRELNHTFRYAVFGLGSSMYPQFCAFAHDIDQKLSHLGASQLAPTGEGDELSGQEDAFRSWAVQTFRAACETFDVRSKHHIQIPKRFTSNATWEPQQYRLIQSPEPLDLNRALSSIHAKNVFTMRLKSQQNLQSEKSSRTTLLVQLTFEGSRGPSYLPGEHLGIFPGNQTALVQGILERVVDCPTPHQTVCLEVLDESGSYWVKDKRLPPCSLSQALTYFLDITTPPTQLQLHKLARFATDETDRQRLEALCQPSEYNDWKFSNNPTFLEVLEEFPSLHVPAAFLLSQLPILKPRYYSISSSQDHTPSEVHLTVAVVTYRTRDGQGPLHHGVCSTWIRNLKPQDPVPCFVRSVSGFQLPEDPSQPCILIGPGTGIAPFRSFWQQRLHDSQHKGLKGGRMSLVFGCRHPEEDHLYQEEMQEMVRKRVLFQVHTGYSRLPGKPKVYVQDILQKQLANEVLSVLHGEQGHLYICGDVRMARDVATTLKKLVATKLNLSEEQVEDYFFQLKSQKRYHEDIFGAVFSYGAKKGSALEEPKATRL

Δ122-iNOSox = biological target: T2, Δ122-iNOSox (Homo sapiens, UniProt P35228); experiment: Binding assay of ^3H-compound A with Δ122-iNOSox (gel filtration mini column, scintillation counting); details: Δ122-iNOSox protein
T2 construct: genes of the oxygenase domain region (amino acids 1 to 526) by PCR; His tag; made in house; host or cells: E. coli, protease-deficient DE3 strain; vector pTrcHis2 (Invitrogen)
Experimental: A binding assay system for ^3H-compound A (25Ci/mmol) was constructed using Δ122-iNOSox obtained in Example 9. In principle, it is an assay system in which the binding strength of a compound towards iNOS can be analyzed by measuring the amount of ^3H-compound A replaced by various test drugs added to bound Δ122-iNOSox protein and ^3H-compound A (10 nM) . That is, to 100 μL of a Δ122-iNOSox solution that has been diluted to a final concentration of 1 μg/mL with 25 mM Tris-HCl (pH 7.5) containing 150 mM NaCl and 1% CHAPS, 1 μL of 1 μM ^3H-compound A was added and was incubated for 3 hours at 4° C., then the entire amount was applied to a gel filtration mini column for desalting (NICK column; Pharmacia) that was pre-equilibrated with 25 mM Tris-HCl (pH 7.5) containing 150 mM NaCl. Next, 400 μL of the same buffer was added, the eluted solution was mixed with 7 mL of aquasol, and this was measured with a liquid scintillation counter.

[2] = biological target: T3, ^14C-A-bound protein in RAW cells (Mus musculus, UniProt P29477); experiment: Dose dependency of ^14C-A binding activity in LPS/IFN-stimulated RAW264.7 cell extract; type: cell-based; details: RAW264.7 cells, LPS/IFN stimulation
T3 construct: endogenous in cells; host or cells: RAW264.7 mouse macrophage cells stimulated with LPS and IFN-γ
T3 sequence (P29477 1-1144): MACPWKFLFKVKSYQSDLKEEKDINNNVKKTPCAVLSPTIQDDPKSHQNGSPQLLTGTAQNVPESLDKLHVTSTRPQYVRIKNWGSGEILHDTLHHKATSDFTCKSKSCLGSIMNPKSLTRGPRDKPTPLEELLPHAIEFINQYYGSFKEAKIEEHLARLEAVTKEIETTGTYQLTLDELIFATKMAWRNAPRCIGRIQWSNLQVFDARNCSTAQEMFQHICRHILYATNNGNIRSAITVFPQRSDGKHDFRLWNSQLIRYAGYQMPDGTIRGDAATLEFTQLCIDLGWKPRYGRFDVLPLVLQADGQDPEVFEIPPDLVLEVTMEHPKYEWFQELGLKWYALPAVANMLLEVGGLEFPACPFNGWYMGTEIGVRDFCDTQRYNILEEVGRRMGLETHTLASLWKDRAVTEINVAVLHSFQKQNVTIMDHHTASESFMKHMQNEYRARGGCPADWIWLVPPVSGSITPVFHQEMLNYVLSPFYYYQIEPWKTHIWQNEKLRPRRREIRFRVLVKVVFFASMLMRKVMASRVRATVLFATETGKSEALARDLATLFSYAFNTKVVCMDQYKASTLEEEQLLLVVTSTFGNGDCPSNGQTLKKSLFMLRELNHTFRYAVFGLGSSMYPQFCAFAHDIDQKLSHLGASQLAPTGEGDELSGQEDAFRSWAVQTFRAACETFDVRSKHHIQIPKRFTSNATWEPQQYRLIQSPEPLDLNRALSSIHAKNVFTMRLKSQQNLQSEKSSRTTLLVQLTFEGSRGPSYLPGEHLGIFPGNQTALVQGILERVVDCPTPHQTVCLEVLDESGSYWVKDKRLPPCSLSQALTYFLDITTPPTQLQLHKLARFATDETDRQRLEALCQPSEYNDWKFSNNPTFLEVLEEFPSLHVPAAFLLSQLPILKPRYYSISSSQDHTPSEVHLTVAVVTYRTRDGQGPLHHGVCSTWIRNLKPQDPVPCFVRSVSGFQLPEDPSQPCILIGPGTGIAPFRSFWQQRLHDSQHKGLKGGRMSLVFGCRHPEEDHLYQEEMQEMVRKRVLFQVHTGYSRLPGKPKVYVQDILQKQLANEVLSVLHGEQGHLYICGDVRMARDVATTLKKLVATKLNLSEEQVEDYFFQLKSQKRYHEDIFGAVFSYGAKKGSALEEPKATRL
Experimental: (§1) Mouse macrophage derived RAW264.7 cells (Stuehr D. J. Proc. Natl. Acad. Sci. USA. 1991, 88, 7773; Cancer Res. 1987, 47, 5590) were cultured in Dulbecco's Modified Eagle Medium containing 10% FCS (fetal calf serum) , until there were 2 to 4×10^7 cells in each F75 culture flask (Falcon). Then, lipopolysaccharide (LPS) and interferon-γ (IFN) were added to a final concentration of 4 μg/ml and 16 units/ml, respectively, and cultured overnight in a CO2 incubator (37° C.). 0.1% Trypsin (5 mL) was added to the flask in which the cells were cultured, the cells were detached by an incubation at 37° C. for 5 minutes, and then collected by centrifugation. To the collected cells (2,000 rpm, 10 minutes), 600 μL of lysis buffer was added, and freeze thawing was repeated three times to disrupt the cells. The supernatant obtained by centrifugation (15,000 rpm, 15 minutes) was collected and this was the cell extract. […]
(§2) Then, 200 μL of that extract was applied to Superdex 200 HR10/30 (flow rate 0.5 mL/min: Amersham Pharmacia Biotech, Sweden) pre-equilibrated with 25 mM Tris-HCl (pH 8.0) containing 150 mM NaCl to perform gel filtration chromatography. Each of the fractions collected every minute were mixed with 7 mL of Aquasol-2 (Packard, USA), and was then measured with a liquid scintillation counter (FIG. 1). ^14C-A used in this experiment was synthesized as follows.

iNOS [3] = biological target: T1, iNOS; experiment: iNOS dimer/monomer detection by gel filtration and anti-iNOS dot blotting of LPS/IFN-stimulated RAW264.7 cell extract; type: cell-based; design: endogenous in cells; host or cells: RAW264.7 mouse macrophage cells stimulated with LPS and IFN-γ; details: RAW264.7 cells, LPS/IFN stimulation, compound A added
Experimental: as §1, with “centrifugation.” for “centrifugation. To the collected cells (2,000 rpm, 10 minutes), 600 μL of lysis buffer was added, and freeze thawing was repeated three times to disrupt the cells. The supernatant obtained by centrifugation (15,000 rpm, 15 minutes) was collected and this was the cell extract.”
as §2
Gel filtration fractions containing compound A binding activity, which were obtained by a method similar to that of Example 2 were analyzed by dot blotting. […]

[4] = biological target: the molecule itself; experiment: gel filtration (Superdex 200) of RAW264.7 cell extract with dot blot detection; homodimer peak

T2 sequence (P35228 123-526 limits assumed, stated change not applied): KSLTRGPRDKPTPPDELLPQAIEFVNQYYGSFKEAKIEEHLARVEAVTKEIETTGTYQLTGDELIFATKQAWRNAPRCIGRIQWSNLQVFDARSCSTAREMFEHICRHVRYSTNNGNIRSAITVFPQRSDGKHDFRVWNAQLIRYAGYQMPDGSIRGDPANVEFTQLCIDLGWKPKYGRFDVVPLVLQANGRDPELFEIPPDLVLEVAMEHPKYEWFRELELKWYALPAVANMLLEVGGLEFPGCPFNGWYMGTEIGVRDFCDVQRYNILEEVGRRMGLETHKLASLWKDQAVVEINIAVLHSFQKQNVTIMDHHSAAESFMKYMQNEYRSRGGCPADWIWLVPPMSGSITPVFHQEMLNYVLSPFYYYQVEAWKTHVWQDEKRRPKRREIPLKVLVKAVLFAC

Clc1ccc(COC(Cn2ccnc2)c2ccc(Cl)cc2Cl)c(Cl)c1 (stereo not shown) [miconazole]
effect on iNOS enzyme activity and dimerization (iNOS [1]): interfered not only with enzyme activity of iNOS but also with its dimerization

CN(Cc1cccnc1)C(=O)[C@H](Cc1ccccc1)NC(=O)[C@H](Cc1ccccn1)NC(=O)c1cc2ccccc2o1 [compound A]
Hill coefficient (Δ122-iNOSox; Hill plot analysis): 0.971 | Kd (Δ122-iNOSox; ^3H-compound A, saturation curve and Scatchard plot): 13.5 nM | radioactivity of cell extract versus added ^14C-A concentration (saturation) [2]: saturation of radioactivity was confirmed between 10^−6 M and 10^−5 M | iNOS dimerization (dimer peak in dot blotting of gel filtration fractions) (iNOS [3]): the peak corresponding to the dimer had clearly disappeared

Clc1ccccc1C(c1ccccc1)(c1ccccc1)n1ccnc1 [clotrimazole]
effect on iNOS enzyme activity and dimerization (iNOS [1]): interfered not only with enzyme activity of iNOS but also with its dimerization

B1: iNOS derived from mice (inducible nitrogen oxide synthase from LPS/IFN-stimulated RAW264.7 cells) (enzyme, mouse, UniProt P29477 1-1144, looked up)
chain: MACPWKFLFKVKSYQSDLKEEKDINNNVKKTPCAVLSPTIQDDPKSHQNGSPQLLTGTAQNVPESLDKLHVTSTRPQYVRIKNWGSGEILHDTLHHKATSDFTCKSKSCLGSIMNPKSLTRGPRDKPTPLEELLPHAIEFINQYYGSFKEAKIEEHLARLEAVTKEIETTGTYQLTLDELIFATKMAWRNAPRCIGRIQWSNLQVFDARNCSTAQEMFQHICRHILYATNNGNIRSAITVFPQRSDGKHDFRLWNSQLIRYAGYQMPDGTIRGDAATLEFTQLCIDLGWKPRYGRFDVLPLVLQADGQDPEVFEIPPDLVLEVTMEHPKYEWFQELGLKWYALPAVANMLLEVGGLEFPACPFNGWYMGTEIGVRDFCDTQRYNILEEVGRRMGLETHTLASLWKDRAVTEINVAVLHSFQKQNVTIMDHHTASESFMKHMQNEYRARGGCPADWIWLVPPVSGSITPVFHQEMLNYVLSPFYYYQIEPWKTHIWQNEKLRPRRREIRFRVLVKVVFFASMLMRKVMASRVRATVLFATETGKSEALARDLATLFSYAFNTKVVCMDQYKASTLEEEQLLLVVTSTFGNGDCPSNGQTLKKSLFMLRELNHTFRYAVFGLGSSMYPQFCAFAHDIDQKLSHLGASQLAPTGEGDELSGQEDAFRSWAVQTFRAACETFDVRSKHHIQIPKRFTSNATWEPQQYRLIQSPEPLDLNRALSSIHAKNVFTMRLKSQQNLQSEKSSRTTLLVQLTFEGSRGPSYLPGEHLGIFPGNQTALVQGILERVVDCPTPHQTVCLEVLDESGSYWVKDKRLPPCSLSQALTYFLDITTPPTQLQLHKLARFATDETDRQRLEALCQPSEYNDWKFSNNPTFLEVLEEFPSLHVPAAFLLSQLPILKPRYYSISSSQDHTPSEVHLTVAVVTYRTRDGQGPLHHGVCSTWIRNLKPQDPVPCFVRSVSGFQLPEDPSQPCILIGPGTGIAPFRSFWQQRLHDSQHKGLKGGRMSLVFGCRHPEEDHLYQEEMQEMVRKRVLFQVHTGYSRLPGKPKVYVQDILQKQLANEVLSVLHGEQGHLYICGDVRMARDVATTLKKLVATKLNLSEEQVEDYFFQLKSQKRYHEDIFGAVFSYGAKKGSALEEPKATRL
notes: Endogenous protein in cell extract and gel filtration fractions; It ran as monomer and dimer peaks without compound A and as monomer only with compound A; also called iNOS protein
binding result [4]: binds
